From patent US8604206B2, “Compositions for preventing and/or treating degenerative disorders of the central nervous system” (Amicus Therapeutics, Inc., priority 2009, dated 2013) come the findings set out here.

Data set [1] concerns the target GCase (Mus musculus, UniProt P17439). The data set can be described thus: GCase enhancement in tissues of orally dosed mice. The data set is classed as in vivo. The settings on record: 9 doses over 2 weeks; for GCase increase (fold): 24-hour washout; for GCase enhancement in brain and spleen: mice, p.o. As for the experimental part:
The ability of orally administered test compounds ((3R,4R,5S)-5-(difluoromethyl)piperidine-3,4-diol, (3R,4R,5S)-5-(1-fluoroethyl)piperidine-3,4-diol, (3R,4R,5S)-5-((R)-1-fluoropropyl)piperidine-3,4-diol hydrochloride, or (3R,4R,5S)-5-benzylpiperidine-3,4-diol) to elevate GCase levels was assessed in mice. For this purpose, 8-week old wild-type male mice (C57BL/6) were administered a […] p.o. (gavage) dose of a compound of the present invention (i.e., (3R,4R,5S)-5-(difluoromethyl)piperidine-3,4-diol, (3R,4R,5S)-5-(1-fluoroethyl)piperidine-3,4-diol, (3R,4R,5S)-5-((R)-1-fluoropropyl)piperidine-3,4-diol hydrochloride, or (3R,4R,5S)-5-benzylpiperidine-3,4-diol). The dosing solutions were prepared in water. Compounds were administered over 2 weeks as follows: week 1, Mon-Fri (On), Sat-Sun (Off); week 2, Mon-Thu (On); necropsy on Friday. Thus, a total of 9 doses (dosing solutions prepared fresh every day) were given to each mouse, with a 24-hour washout between the last dose and necropsy.
(§1) Plasma was collected by spinning blood at 2700 g for 10 minutes at 4° C. Liver, spleen, lung, and brain tissues were removed, washed in cold PBS, blotted dry, flash frozen on dry ice, and stored at −80° C. until analysis. GCase levels were measured by homogenizing approximately 50 mg tissue in 500 μL McIlvane (MI) buffer (100 mM sodium citrate, 200 mM sodium phosphate dibasic, 0.25% sodium taurocholate, and 0.1% Triton X-100, pH 5.2) at pH 5.2 for 3-5 seconds on ice with a micro homogenizer. Homogenates were then incubated at room temperature without and with 2.5 mM conduritol-B-epoxide (CBE) for 30 min. Finally, 3.7 mM 4-methylumbeliferryl-β-glucoside (4-MUG) substrate was added and incubated at 37° C. for 60 min. […] Fluorescence was measured on a plate reader for 1 sec/well using 355 nm excitation and 460 nm emission. Total protein was determined in lysates using the MicroBCA kit according to the manufacturer's instructions. A 4-methylumbelliferone (4-MU) standard curve ranging from 1.0 nM to 50 μM was run in parallel for conversion of raw fluorescence data to absolute GCase activity (in the presence and absence of CBE) and expressed as nanomoles of 4-MU released per milligram of protein per hour (nmol/mg protein/hr). GCase levels and protein levels were calculated using Microsoft Excel (Redmond, Wash.) and GraphPad Prism version 4.02.

Data set [2] can be described thus: Blood brain barrier penetration, plasma and brain levels after oral administration. The data set is classed as in vivo, mouse. The following applies: mice, single 30 mg/kg (free base equivalent) p.o. Here is the method: For this purpose, 8-week old wild-type male mice (C57BL/6) were administered a single 30 mg/kg (free base equivalent) p.o. dose of reference or test compound by gavage (n=3 mice per time point). Dosing solutions were prepared in water. After dosing, mice were euthanized with CO2 at the following time points: 0-, 0.5-, 1-, and 4-hour post-dose. […] Similarly, brains were collected from each mouse. Plasma was derived by spinning whole blood at 2,700×g for 10 minutes at 4° C. followed by storage on dry ice. Whole brains were washed in cold PBS to remove contaminating blood, blotted dry, flash frozen on dry ice, and ultimately stored at −80° C. until analysis. To prepare brain samples for analysis, 50-100 mg of tissue was homogenized in […] of water/mg tissue. Samples were then clarified by centrifugation. Next, 25 μl of the brain homogenate supernatant or 25 μl of plasma were combined with 25 μl of acetonitrile:water (95/5). […] Samples were again clarified by centrifugation and 75 μl of the supernatant was combined with 75 μl of acetonitrile. Samples were then analyzed for compound levels by LC-MS/MS at PPD Inc. (3230 Deming Way, Middleton, Wis. 53562). In brief, a Thermo Betasil, Silica-100, 50×3 mm, 5μ column equilibrated with a mixture of mobile phase consisting of 5 mM ammonium formate and 0.05% formic acid in (A) 95:5 acetonitrile:water or (B) 70:20:10 methanol:water:acetonitrile was employed. Between 20 and 30 μl sample was injected for analysis. For calculating drug concentrations, raw data for plasma (ng/mL) and brain (ng/g) was converted to nM using the molecular weight of respective compounds and assuming 1 g of tissue is equivalent to 1 mL volume. Concentration as a function of time was plotted in GraphPad Prism version 4.02.

The target in data set [3] is GCase (Homo sapiens (Human), UniProt P04062). The data set can be described thus: GCase activity enhancement (EC50, Emax) of Table 2B. The format is cell-based. The following applies: for increase in GCase activity compared to IFG-tartrate: compared to reference compound IFG-tartrate.
Chain of GCase (Homo sapiens (Human), UniProt P04062) (P04062 40-536): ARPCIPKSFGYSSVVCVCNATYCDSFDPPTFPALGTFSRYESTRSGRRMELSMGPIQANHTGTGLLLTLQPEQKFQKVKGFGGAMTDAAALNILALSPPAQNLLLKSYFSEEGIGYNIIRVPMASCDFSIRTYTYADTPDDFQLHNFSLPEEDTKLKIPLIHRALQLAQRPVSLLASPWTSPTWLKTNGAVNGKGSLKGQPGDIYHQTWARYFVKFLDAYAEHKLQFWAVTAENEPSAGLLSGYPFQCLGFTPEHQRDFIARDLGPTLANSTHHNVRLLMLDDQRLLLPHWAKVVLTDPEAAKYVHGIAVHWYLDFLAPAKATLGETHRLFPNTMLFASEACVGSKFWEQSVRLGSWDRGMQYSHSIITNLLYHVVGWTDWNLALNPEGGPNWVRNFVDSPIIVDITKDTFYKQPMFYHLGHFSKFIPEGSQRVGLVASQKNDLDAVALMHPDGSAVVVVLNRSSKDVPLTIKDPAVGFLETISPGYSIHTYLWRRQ
Another data set concerns the target lysosomal GCase (Homo sapiens (Human), UniProt P04062). The data set can be described thus: In situ lysosomal GCase inhibition and washout assay in fibroblasts from a normal subject. The data set is classed as cell-based. The following applies: for in situ washout from the lysosomal compartment compared to IFG-tartrate: compared to reference compound IFG-tartrate; for in situ washout: fibroblasts treated at IC90, then drug-free medium; for IC50: fibroblasts, 16-24 hours with compound, PFBFDβGlu substrate. As for the experimental part: The effect of the novel compounds of the present invention on lysosomal GCase activity was assayed in situ using fibroblasts established from a normal subject. Cells seeded in 48-well plates were incubated with the indicated concentrations of compound for 16-24 hours. For the dose-response assays, cells were incubated with the in situ substrate 5-(pentafluorobenzoylamino)fluorescein di-β-D-glucopyranoside (PFBFDβGlu) for 1 hour and subsequently lysed to determine the extent of substrate hydrolysis in the presence of compound. […] Inhibition was determined as the ratio of activity in the presence of compound to that in the absence of compound. […] Cells were washed extensively and incubated in drug-free medium to allow net compound efflux from cells. Cells were then tested for lysosomal GCase activity at 2 hour intervals over a total period of 8 hours following compound removal. The increase in activity over time was fitted with a single exponential function to determine the compound's washout time.

The nature of data set [4]: Compound concentration in tissue of mice of the GCase enhancement study. The data set is classed as in vivo, mouse. The settings on record: 9 doses, 24-hour washout. Here is the method:
The dosing solutions were prepared in water. Compounds were administered over 2 weeks as follows: week 1, Mon-Fri (On), Sat-Sun (Off); week 2, Mon-Thu (On); necropsy on Friday. Thus, a total of 9 doses (dosing solutions prepared fresh every day) were given to each mouse, with a 24-hour washout between the last dose and necropsy.
as §1

The term EC50 denotes the concentration needed to bring the measured effect to its halfway point. The term IC50 denotes the concentration that gives 50% inhibition.

Structures are written as SMILES.

Chain of lysosomal GCase (P04062 40-536): as above
Chain of GCase (Mus musculus, UniProt P17439) (P17439 20-515 limits assumed): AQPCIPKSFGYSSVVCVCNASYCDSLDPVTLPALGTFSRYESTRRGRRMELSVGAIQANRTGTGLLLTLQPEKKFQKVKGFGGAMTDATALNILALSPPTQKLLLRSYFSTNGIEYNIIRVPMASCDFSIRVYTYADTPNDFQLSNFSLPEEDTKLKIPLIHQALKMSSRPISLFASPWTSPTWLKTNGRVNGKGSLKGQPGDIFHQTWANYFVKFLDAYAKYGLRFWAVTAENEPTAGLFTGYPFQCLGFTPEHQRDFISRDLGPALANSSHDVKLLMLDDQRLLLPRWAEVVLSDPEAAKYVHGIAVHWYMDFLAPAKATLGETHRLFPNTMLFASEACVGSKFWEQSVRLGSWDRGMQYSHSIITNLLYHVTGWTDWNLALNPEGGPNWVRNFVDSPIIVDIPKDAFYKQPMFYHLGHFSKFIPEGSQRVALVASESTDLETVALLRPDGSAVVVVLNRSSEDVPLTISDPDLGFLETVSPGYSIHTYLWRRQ

With `O[C@@H]1[C@@H](Cc2ccccc2)CNC[C@H]1O` [(3R,4R,5S)-5-benzyl-piperidine-3,4-diol], the “GCase increase (fold)” value on GCase [1] (brain, 10 mg/kg FBE p.o.) came to 1.2 fold. In addition, the “GCase increase (fold)” value at GCase [1] (brain, 100 mg/kg FBE p.o.) amounted to 1.4 fold. The “GCase enhancement in brain and spleen” value at GCase [1] is “significant GCase enhancement in brain and spleen”. Further, the “GCase increase (fold)” value on GCase [1] (spleen, 10 mg/kg FBE p.o.) is listed as 1.0 fold. For the same molecule, at GCase [1] (spleen, 100 mg/kg FBE p.o.), the “GCase increase (fold)” value is given as 1.2 fold. For the same molecule, in data set [2], the “blood brain barrier crossing compared to IFG-tartrate” value is given as “crossed the blood brain barrier more readily as compared to IFG-tartrate” and the “levels detected in brain compared to IFG-tartrate” value was “higher levels”. Besides, at GCase [3], the EC50 was determined as 180 ± 10 nM and the “increase in GCase activity compared to IFG-tartrate” value (shortened to “increase in GCase activity”) is on record as “enhanced enzyme activity to the same maximum level as reference compound IFG-tartrate at much lower concentration”. Moreover, at lysosomal GCase, the “inhibition of GCase activity” value is reported as “inhibited GCase activity”, the “in situ washout from the lysosomal compartment compared to IFG-tartrate” value was “considerably faster than reference compound IFG-tartrate”, the “in situ washout” value was 1.2 ± 0.13 h and the IC50 turned out to be 1300 ± 323 nM.

`Cl.O[C@H]1[C@H](O)CNC[C@@H]1C(F)F` [Cmpd 6, (3R,4R,5S)-5-(Difluoromethyl)piperidine 3,4-diol Hydrochloride]: the “GCase enhancement in brain and spleen” value at GCase [1] was “significant GCase enhancement in brain and spleen”. In data set [2], the “blood brain barrier crossing compared to IFG-tartrate” value is “crossed the blood brain barrier more readily as compared to IFG-tartrate” and the “levels detected in brain compared to IFG-tartrate” value is “higher levels”. In data set [4] (brain, 10 mg/kg FBE p.o.), the “Compound concentration in tissue” value was 55 nmol/kg. The “Compound concentration in tissue” value in data set [4] (brain, 100 mg/kg FBE p.o.) worked out at 301 nmol/kg. Moreover, the “Compound concentration in tissue” value in data set [4] (spleen, 10 mg/kg FBE p.o.) was 100 nmol/kg. Besides, the “Compound concentration in tissue” value in data set [4] (spleen, 100 mg/kg FBE p.o.) was determined as 435 nmol/kg. The “increase in GCase activity” value at GCase [3] is reported as “enhanced enzyme activity to the same maximum level as reference compound IFG-tartrate at much lower concentration”. For the same molecule, on lysosomal GCase, the “inhibition of GCase activity” value is “inhibited GCase activity”, the “in situ washout from the lysosomal compartment compared to IFG-tartrate” value is “considerably faster than reference compound IFG-tartrate” and the “in situ washout” value is 2.1 ± 0.30 h.

Take `CC[C@@H](F)[C@H]1CNC[C@@H](O)[C@@H]1O.Cl` [(3R,4R,5S)-5-((R)-1-fluoropropyl)-piperidine-3,4-diol hydrochloride]: the “GCase increase (fold)” value is 0.9 fold on GCase [1] (brain, 10 mg/kg FBE p.o.); 1.1 fold at GCase [1] (brain, 100 mg/kg FBE p.o.); 0.7 fold on GCase [1] (spleen, 10 mg/kg FBE p.o.); 0.7 fold at GCase [1] (spleen, 100 mg/kg FBE p.o.). Besides, in data set [2], the “blood brain barrier crossing compared to IFG-tartrate” value is “crossed the blood brain barrier more readily as compared to IFG-tartrate”. The “levels detected in brain compared to IFG-tartrate” value in data set [2] is recorded as “higher levels”. Further, the “Compound concentration in tissue” value in data set [4] (brain, 10 mg/kg FBE p.o.) was “BLQ(2) (BLQ < 2.2 nmol/kg)”; in data set [4] (brain, 100 mg/kg FBE p.o.) it was 38 nmol/kg; in data set [4] (spleen, 10 mg/kg FBE p.o.), 21 nmol/kg; in data set [4] (spleen, 100 mg/kg FBE p.o.), 60 nmol/kg. Also, the EC50 on GCase [3] was 86 ± 2 nM. At GCase [3], the “increase in GCase activity” value is reported as “enhanced enzyme activity to the same maximum level as reference compound IFG-tartrate at much lower concentration”. The “inhibition of GCase activity” value against lysosomal GCase is “inhibited GCase activity”. In addition, at lysosomal GCase, the IC50 was determined as 972 ± 201 nM.
